Assay results reported in US20260262643A1, “HERBICIDAL BENZOXAZINES” (FMC CORPORATION, priority 2022, published 2026).

Tests used:
sedge, umbrella = assay: Test B flooded paddy test; type: in vivo, Cyperus difformis; settings: 250 g ai/ha, Flood, 13 days, 0 to 100 scale (0 no effect, 100 complete control)
In short: (§1)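 Each species was raised to the 2-leaf stage. At treatment, each pot received floodwater 3 cm deep, with the chemical delivered into the water. Greenhouse holding followed for 13 days, then percent control was estimated visually versus untreated pots.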

ryegrass, Italian [1] = assay: Test A postemergence; type: in vivo, Lolium multiflorum; settings: postemergence, 10 days
In short: (§2)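 Weeds and crops in loam–sand blend were sprayed preemergence onto soil or postemergence at 2–10 cm (one- to two-leaf stage). Test chemicals were in a non-phytotoxic solvent with surfactant. After 10 days in the greenhouse, injury was rated visually against untreated controls on a 0 (no effect) to 100 (complete control) scale.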

oat, wild [2] = assay: Test A postemergence; type: in vivo, Avena fatua; settings: postemergence, 10 days
In short: as §2

soybean [3] = assay: Test A preemergence; type: in vivo, Glycine max; settings: 0 to 100 scale
In short: as §2

ryegrass, Italian [4] = assay: Test A preemergence; type: in vivo, Lolium multiflorum; settings: 0 to 100 scale
In short: as §2

wheat [5] = assay: Test A preemergence; type: in vivo, Triticum aestivum; settings: 0 to 100 scale
In short: as §2

barnyardgrass [6] = assay: Test A preemergence; type: in vivo, Echinochloa crusgalli; settings: visual injury after 10 days, 0 to 100 scale, 0 is no effect, 100 is complete control
In short: as §2

horseweed = assay: Test A postemergence; type: in vivo, Erigeron canadensis; settings: postemergence, 10 days
In short: as §2

kochia [7] = assay: Test A preemergence; type: in vivo, Bassia scoparia; settings: 0 to 100 scale
In short: as §2

corn [8] = assay: Test A preemergence; type: in vivo, Zea mays; settings: 0 to 100 scale
In short: as §2

corn [9] = assay: Test A postemergence; type: in vivo, Zea mays; settings: postemergence, 10 days
In short: as §2

foxtail, giant [10] = assay: Test A preemergence; type: in vivo, Setaria faberi; settings: 0 to 100 scale
In short: as §2

wheat [11] = assay: Test A postemergence; type: in vivo, Triticum aestivum; settings: postemergence, 10 days
In short: as §2

rice = assay: Test B flooded paddy test; type: in vivo, Oryza sativa; settings: 250 g ai/ha, Flood, 13 days, 0 to 100 scale (0 no effect, 100 complete control)
In short: as §1

pigweed, palmer [12] = assay: Test A postemergence; type: in vivo, Amaranthus palmeri; settings: 500 g ai/ha, postemergence, 10 days, visual injury, 0 to 100 scale (0 no effect, 100 complete control)
In short: as §2

blackgrass [13] = assay: Test A postemergence; type: in vivo, Alopecurus myosuroides; settings: postemergence, 10 days
In short: as §2

barnyardgrass [14] = assay: Test A postemergence; type: in vivo, Echinochloa crusgalli; settings: postemergence, 10 days
In short: as §2

ragweed [15] = assay: Test A postemergence; type: in vivo, Ambrosia artemisiifolia; settings: postemergence, 10 days
In short: as §2

ducksalad = assay: Test B flooded paddy test; type: in vivo, Heteranthera limosa; settings: 250 g ai/ha, Flood, 13 days, 0 to 100 scale (0 no effect, 100 complete control)
In short: as §1

kochia [16] = assay: Test A postemergence; type: in vivo, Bassia scoparia; settings: postemergence, 10 days
In short: as §2

galium = assay: Test A postemergence; type: in vivo, Galium aparine; settings: 500 g ai/ha, postemergence, 10 days, visual injury, 0 to 100 scale (0 no effect, 100 complete control)
In short: as §2

pigweed, palmer [17] = assay: Test A preemergence; type: in vivo, Amaranthus palmeri; settings: 0 to 100 scale
In short: as §2

ragweed [18] = assay: Test A preemergence; type: in vivo, Ambrosia artemisiifolia; settings: 0 to 100 scale
In short: as §2

soybean [19] = assay: Test A postemergence; type: in vivo, Glycine max; settings: postemergence, 10 days
In short: as §2

barnyardgrass [20] = assay: Test B flooded paddy test; type: in vivo, Echinochloa crus-galli; settings: 250 g ai/ha, Flood, 13 days, 0 to 100 scale (0 no effect, 100 complete control)
In short: as §1

foxtail, giant [21] = assay: Test A postemergence; type: in vivo, Setaria faberi; settings: postemergence, 10 days
In short: as §2

oat, wild [22] = assay: Test A preemergence; type: in vivo, Avena fatua; settings: 0 to 100 scale
In short: as §2

blackgrass [23] = assay: Test A preemergence; type: in vivo, Alopecurus myosuroides; settings: 0 to 100 scale
In short: as §2

[24] = 125 g ai/ha, 0 to 100 scale, 0 no effect, 100 complete control
[25] = 500 g ai/ha, visual injury, 0 to 100 scale (0 no effect, 100 complete control)
[26] = 500 g ai/ha, visual injury after 10 days, 0 is no effect, 100 is complete control

**Q.** How did the “Plant response rating, Sedge, Umbrella” value (sedge, umbrella) turn out when `Cc1nc(C)n(-c2cccc(C(=O)N3C[C@H](C)Oc4c(Cl)cccc43)c2)n1` [Compound 142] was run?
**A.** The value was 0.

**Q.** What about the “Ryegrass, Italian plant response rating” value (ryegrass, Italian [1]; [24]) of the same molecule?
**A.** Its value is 0.

**Q.** What about the “Plant response rating, Ryegrass, Italian” value (ryegrass, Italian [1]; [25]) of the same molecule?
**A.** The value was 20.

**Q.** And the “Oat, Wild plant response rating” value (oat, wild [2]; [24])?
**A.** The value was 0.

**Q.** What about the “Plant response rating, Oat, Wild” value (oat, wild [2]; [25]) of the same molecule?
**A.** Its value is 0.

**Q.** And the “Plant response rating, Soybean” value (soybean [3]; 125 g ai/ha)?
**A.** Its value is 0.

**Q.** And the “Plant response rating, Soybean” value (soybean [3]; [26])?
**A.** Its value is 0.

**Q.** And the “Plant response rating, Ryegrass, Italian” value (ryegrass, Italian [4]; 125 g ai/ha)?
**A.** The value was 30.

**Q.** And the “Plant response rating, Ryegrass, Italian” value (ryegrass, Italian [4]; [26])?
**A.** Its value is 50.

**Q.** What about the “Plant response rating, Wheat” value (wheat [5]; 125 g ai/ha) of the same molecule?
**A.** The value was 0.

**Q.** What about the “Plant response rating, Wheat” value (wheat [5]; [26]) of the same molecule?
**A.** The value was 0.

**Q.** What about the “Plant response rating, Barnyardgrass” value (barnyardgrass [6]; 125 g ai/ha) of the same molecule?
**A.** The value was 30.

**Q.** What about the “Plant response rating, Barnyardgrass” value (barnyardgrass [6]; 500 g ai/ha) of the same molecule?
**A.** Its value is 50.

**Q.** What about the “Horseweed plant response rating” value (horseweed; [24]) of the same molecule?
**A.** The value was 0.

**Q.** And the “Plant response rating, Horseweed” value (horseweed; [25])?
**A.** Its value is 0.

**Q.** And the “Plant response rating, Kochia” value (kochia [7]; 125 g ai/ha)?
**A.** Its value is 0.

**Q.** And the “Plant response rating, Kochia” value (kochia [7]; [26])?
**A.** The value was 40.

**Q.** And the “Plant response rating, Corn” value (corn [8]; 125 g ai/ha)?
**A.** The value was 0.

**Q.** What about the “Plant response rating, Corn” value (corn [8]; [26]) of the same molecule?
**A.** Its value is 10.

**Q.** What about the “Corn plant response rating” value (corn [9]; [24]) of the same molecule?
**A.** Its value is 10.

**Q.** What about the “Plant response rating, Corn” value (corn [9]; [25]) of the same molecule?
**A.** Its value is 10.

**Q.** And the “Plant response rating, Foxtail, Giant” value (foxtail, giant [10]; 125 g ai/ha)?
**A.** Its value is 30.

**Q.** And the “Plant response rating, Foxtail, Giant” value (foxtail, giant [10]; [26])?
**A.** The value was 90.

**Q.** And the “Wheat plant response rating” value (wheat [11]; [24])?
**A.** Its value is 10.

**Q.** What about the “Plant response rating, Wheat” value (wheat [11]; [25]) of the same molecule?
**A.** The value was 10.

**Q.** And the “Plant response rating, Rice” value (rice)?
**A.** Its value is 0.

**Q.** What about the “Plant response rating, Pigweed, Palmer” value (pigweed, palmer [12]) of the same molecule?
**A.** The value was 20.

**Q.** And the “Blackgrass plant response rating” value (blackgrass [13]; [24])?
**A.** Its value is 0.

**Q.** And the “Plant response rating, Blackgrass” value (blackgrass [13]; [25])?
**A.** The value was 60.

**Q.** And the “Barnyardgrass plant response rating” value (barnyardgrass [14]; [24])?
**A.** The value was 10.

**Q.** And the “Plant response rating, Barnyardgrass” value (barnyardgrass [14]; [25])?
**A.** The value was 10.

**Q.** And the “Ragweed plant response rating” value (ragweed [15]; [24])?
**A.** The value was 0.

**Q.** What about the “Plant response rating, Ragweed” value (ragweed [15]; [25]) of the same molecule?
**A.** Its value is 20.

**Q.** And the “Plant response rating, Ducksalad” value (ducksalad)?
**A.** The value was 0.

**Q.** What about the “Kochia plant response rating” value (kochia [16]; [24]) of the same molecule?
**A.** Its value is 10.

**Q.** And the “Plant response rating, Kochia” value (kochia [16]; [25])?
**A.** Its value is 50.

**Q.** And the “Plant response rating, Galium” value (galium)?
**A.** The value was 30.

**Q.** What about the “Plant response rating, Pigweed, Palmer” value (pigweed, palmer [17]; 125 g ai/ha) of the same molecule?
**A.** Its value is 0.

**Q.** And the “Plant response rating, Pigweed, Palmer” value (pigweed, palmer [17]; [26])?
**A.** The value was 20.

**Q.** And the “Plant response rating, Ragweed” value (ragweed [18]; 125 g ai/ha)?
**A.** Its value is 0.

**Q.** And the “Plant response rating, Ragweed” value (ragweed [18]; [26])?
**A.** Its value is 0.

**Q.** And the “Soybean plant response rating” value (soybean [19]; [24])?
**A.** The value was 40.

**Q.** What about the “Plant response rating, Soybean” value (soybean [19]; [25]) of the same molecule?
**A.** Its value is 40.

**Q.** What about the “Plant response rating, Barnyardgrass” value (barnyardgrass [20]) of the same molecule?
**A.** Its value is 0.

**Q.** What about the “Foxtail, Giant plant response rating” value (foxtail, giant [21]; [24]) of the same molecule?
**A.** The value was 30.

**Q.** And the “Plant response rating, Foxtail, Giant” value (foxtail, giant [21]; [25])?
**A.** Its value is 80.

**Q.** And the “Plant response rating, Oat, Wild” value (oat, wild [22]; 125 g ai/ha)?
**A.** The value was 0.

**Q.** What about the “Plant response rating, Oat, Wild” value (oat, wild [22]; [26]) of the same molecule?
**A.** Its value is 0.

**Q.** And the “Plant response rating, Blackgrass” value (blackgrass [23]; 125 g ai/ha)?
**A.** The value was 0.

**Q.** And the “Plant response rating, Blackgrass” value (blackgrass [23]; [26])?
**A.** Its value is 30.
